From DBAASP
≈ marks a conversion by molar mass, not a printed value. Where “and” joins values, the source holds several entries; their conditions need not be identical. Equal entries are not always repeated. One block for each compound: values may come before it.

Columns and labels:
Assay in all cases: ≥ marks a high value that may be exact or a test limit, other limits are often not marked, values filed in µg/mL are converted to µM
[1] = system: Bacillus subtilis IFO 3513
[2] = system: Escherichia coli IFO 12734
[3] = system: Staphylococcus aureus IFO 12732
[4] = system: Neisseria gonorrhoeae FA-19
Escherichia coli = system: Escherichia coli
[5] = system: Neisseria gonorrhoeae F-62
Candida albicans = system: Candida albicans
Listeria monocytogenes = system: Listeria monocytogenes
Bacillus megaterium Bm11 = system: Bacillus megaterium Bm11
[6] = system: Enterococcus faecalis ATCC 29212
Acinetobacter junii RT-4 = system: Acinetobacter junii RT-4
[7] = system: Candida albicans ATCC 10231
[8] = system: Streptococcus pyogenes ATCC 21547
[9] = system: Yersinia pseudotuberculosis YPIII
[10] = system: Staphylococcus aureus Cowan 1
[11] = system: Pseudomonas aeruginosa ATCC 15692
Escherichia coli D21 = system: Escherichia coli D21
[12] = system: Escherichia coli ATCC 25922
[13] = system: Pseudomonas syringae pv. tabaci 1918NCPPB
[14] = system: Staphylococcus aureus ATCC 25923
Saccharomyces cerevisiae = system: Saccharomyces cerevisiae
[15] = system: Acinetobacter baumannii ATCC 19606
Staphylococcus capitis 1 = system: Staphylococcus capitis 1
[16] = system: Schizosaccharomyces pombe
[17] = system: Staphylococcus epidermidis ATCC 12228
Aeromonas hydrophila = system: Aeromonas hydrophila
[18] = system: Vibrio harveyi CGMCC 1.1593
[19] = system: Staphylococcus haemolyticus
Escherichia coli 363 = system: Escherichia coli 363
Micrococcus luteus = system: Micrococcus luteus
Aerococcus viridans = system: Aerococcus viridans
Bacillus subtilis = system: Bacillus subtilis
Vibrio anguillarum = system: Vibrio anguillarum
Vibrio harveyi = system: Vibrio harveyi
Enterococcus faecalis = system: Enterococcus faecalis
[20] = system: Listeria monocytogenes NCTC 7973
Pseudomonas aeruginosa = system: Pseudomonas aeruginosa
Staphylococcus aureus MR = system: Staphylococcus aureus MR
Corynebacterium xerosis = system: Corynebacterium xerosis
Staphylococcus aureus = system: Staphylococcus aureus
[21] = system: Staphylococcus aureus SAP 0017
[22] = system: Staphylococcus epidermidis
Salmonella typhimurium = system: Salmonella typhimurium
[23] = system: Streptococcus pyogenes ATCC 19615

MIC [1]: 3.64 µM (≈ 6.25 µg/mL)
MIC [2]: 29.1 µM (≈ 50 µg/mL)
MIC [3]: 3.64 µM (≈ 6.25 µg/mL)
Compound: CC[C@H](C)[C@H](NC(=O)[C@H](CC(C)C)NC(=O)[C@@H]1CCCN1C(=O)[C@H](CCCCN)NC(=O)[C@H](CCCCN)NC(=O)[C@H](Cc1c[nH]c2ccccc12)NC(=O)[C@@H]1CCCN1C(=O)[C@H](CCCCN)NC(=O)[C@H](CC(C)C)NC(=O)[C@@H]1CCCN1C(=O)[C@H](Cc1c[nH]c2ccccc12)NC(=O)[C@H](CCCN=C(N)N)NC(=O)[C@@H](N)CCCN=C(N)N)C(N)=O [RRWPLKPWKKPLI]

MIC [4]: 1.66 µM (≈ 3.49 µg/mL)
MIC (Escherichia coli): 0.997 µM (≈ 2.1 µg/mL)
MIC [5]: 0.57 µM (≈ 1.2 µg/mL)
MIC (Candida albicans): 14.4 µM (≈ 30.3 µg/mL)
MIC (Listeria monocytogenes): 0.902 µM (≈ 1.9 µg/mL)
Compound: CC[C@H](C)[C@@H]1NC(=O)[C@H](Cc2c[nH]c3ccccc23)NC(=O)CNC(=O)[C@H](CCCN=C(N)N)NC(=O)[C@@H]2CSSC[C@H](NC1=O)C(=O)N[C@@H](Cc1ccccc1)C(=O)N[C@H](C(=O)N[C@H](C(=O)NCC(=O)N[C@@H](CCCN=C(N)N)C(=O)O)C(C)C)CSSC[C@H](NC(=O)[C@H](CC(C)C)NC(=O)[C@H](CCCN=C(N)N)NC(=O)CNC(=O)CNC(=O)[C@@H](N)CCCN=C(N)N)C(=O)N[C@@H](Cc1ccc(O)cc1)C(=O)N2 [RGGRLCYCRGWICFCVGR]

MIC (Bacillus megaterium Bm11): 3 µM (≈ 4.87 µg/mL)
MIC [6]: 12 µM (≈ 19.5 µg/mL)
MIC (Acinetobacter junii RT-4): 12 µM (≈ 19.5 µg/mL)
MIC [7]: 12 µM (≈ 19.5 µg/mL)
MIC [8]: 6 µM (≈ 9.74 µg/mL)
MIC [9]: 6 µM (≈ 9.74 µg/mL)
MIC [10]: 3 µM (≈ 4.87 µg/mL)
MIC [11]: ≥ 48 µM
MIC (Escherichia coli D21): 24 µM (≈ 39 µg/mL)
MIC [12]: 12 µM (≈ 19.5 µg/mL)
MIC [13]: 12 µM (≈ 19.5 µg/mL)
MIC [14]: 3 µM (≈ 4.87 µg/mL)
MIC (Saccharomyces cerevisiae): 12 µM (≈ 19.5 µg/mL)
MIC [15]: 12 µM (≈ 19.5 µg/mL)
MIC (Staphylococcus capitis 1): 3 µM (≈ 4.87 µg/mL)
MIC [16]: 6 µM (≈ 9.74 µg/mL)
MIC [17]: 3 µM (≈ 4.87 µg/mL)
Compound: CC[C@H](C)[C@H](NC(=O)[C@H](CCCN=C(N)N)NC(=O)CNC(=O)[C@H](CC(C)C)NC(=O)[C@H](Cc1ccccc1)NC(=O)[C@H](CCCCN)NC(=O)[C@H](CO)NC(=O)[C@H](Cc1ccccc1)NC(=O)[C@H](Cc1c[nH]c2ccccc12)NC(=O)[C@@H]1CCCN1C(=O)[C@H](CC(C)C)NC(=O)[C@@H](N)Cc1ccccc1)C(=O)N[C@@H](CC(C)C)C(N)=O [FLPWFSKFLGRIL]

MIC (Aeromonas hydrophila): ≥ 50 µM
MIC [18]: 5.06 µM (≈ 22.1 µg/mL)
MIC (Escherichia coli 363): ≥ 50 µM
MIC (Micrococcus luteus): 0.78 µM (≈ 3.41 µg/mL)
MIC (Aerococcus viridans): 0.39 µM (≈ 1.7 µg/mL)
MIC (Bacillus subtilis): 12.5 µM and 10.1 µM
MIC (Vibrio anguillarum): 6.25 µM (≈ 27.3 µg/mL)
MIC (Vibrio harveyi): 1.56 µM (≈ 6.82 µg/mL)
Compound: CC[C@H](C)[C@@H]1NC(=O)[C@@H]2CSSC[C@H](NC(=O)[C@@H]3CCCN3C(=O)[C@H](CO)NC(=O)[C@H](CCCN=C(N)N)NC1=O)C(=O)N1CCC[C@H]1C(=O)N[C@H](C(=O)N[C@@H](C)C(=O)N[C@@H](CC(N)=O)C(=O)N[C@@H](Cc1ccc(O)cc1)C(=O)NCC(=O)O)CSSC[C@H](NC(=O)CNC(=O)[C@@H]1CCCN1C(=O)[C@H](CCCN=C(N)N)NC(=O)CNC(=O)CNC(=O)[C@H](Cc1ccccc1)NC(=O)[C@H](CCC(N)=O)NC(=O)CNC(=O)CNC(=O)[C@@H](NC(=O)[C@H](Cc1ccccc1)NC(=O)[C@@H]1CCCN1C(=O)[C@H](CCCN=C(N)N)NC(=O)CNC(=O)CNC(=O)[C@H](Cc1ccccc1)NC(=O)[C@@H]1CCCN1C(=O)[C@H](CCCN=C(N)N)NC(=O)CNC(=O)[C@H](Cc1ccc(O)cc1)NC(=O)[C@H](CCCN=C(N)N)NC(=O)[C@H](CCCN=C(N)N)NC(=O)[C@H](CO)NC(=O)[C@@H](NC(=O)[C@H](CCCN=C(N)N)NC(=O)[C@@H]1CCCN1C(=O)[C@@H](N)CO)C(C)C)C(C)C)C(=O)N[C@@H](C(C)C)C(=O)N2 [SPRVSRRYGRPFGGRPFVGGQFGGRPGCVCIRSPCPCANYG]
MIC [19]: 12.5 µM (≈ 54.6 µg/mL)

MIC [6]: > 34 µM
MIC (Escherichia coli): 2.13 µM and 4.25 µM
MIC (Enterococcus faecalis): ≥ 34 µM
MIC [20]: 8.51 µM (≈ 16 µg/mL)
MIC (Pseudomonas aeruginosa): 8.51 µM (≈ 16 µg/mL)
MIC (Staphylococcus aureus MR): 8.51 µM (≈ 16 µg/mL)
MIC (Corynebacterium xerosis): 0.266 µM (≈ 0.5 µg/mL)
MIC (Staphylococcus aureus): 8.51 µM (≈ 16 µg/mL)
MIC [21]: 8.51 µM (≈ 16 µg/mL)
MIC [22]: 4.25 µM and 2.13 µM
MIC (Salmonella typhimurium): ≥ 34 µM
MIC [14]: 8.51 µM (≈ 16 µg/mL)
MIC [23]: 4.25 µM (≈ 8 µg/mL)
Compound: CC[C@H](C)[C@H](N)C(=O)N[C@@H](CC(C)C)C(=O)N[C@@H](CCCCN)C(=O)N[C@@H](CCCCN)C(=O)N[C@@H](Cc1c[nH]c2ccccc12)C(=O)N1CCC[C@H]1C(=O)N[C@@H](Cc1c[nH]c2ccccc12)C(=O)N[C@@H](Cc1c[nH]c2ccccc12)C(=O)N1CCC[C@H]1C(=O)N[C@@H](Cc1c[nH]c2ccccc12)C(=O)N[C@@H](CCCN=C(N)N)C(=O)N[C@@H](CCCN=C(N)N)C(=O)N[C@@H](CCCCN)C(N)=O [ILKKWPWWPWRRK]
MIC [19]: 1.06 µM and 0.532 µM
